Laboratory results: patent publication US9168248B2, “Spiro compounds useful as inhibitors of stearoyl-coenzyme A delta-9 desaturase” (Merck Canada Inc., priority 2009, dated 2015)

Biological target: human SCD1 (Homo sapiens (Human), UniProt O00767)
Assay: SCD enzyme activity assay (conversion of radiolabeled stearoyl-CoA to oleoyl-CoA), human SCD1
Assay type: biochemical
Settings: human SCD1 from baculovirus/Sf9 expression system, reconstituted with cytochrome B5 and cytochrome B5 reductase; read-out: IC50 hSCD-1
Description: I. SCD Enzyme Activity Assay:
The potency of compounds of formula I against the stearoyl-CoA desaturase was determined by measuring the conversion of radiolabeled stearoyl-CoA to oleoyl-CoA using rat liver microsome or human SCD1 following previously published procedures with some modifications (Joshi, et al., J. Lipid Res., 18: 32-36 (1977); Talamo, et al., Anal. Biochem, 29: 300-304 (1969)). Liver microsome was prepared from male Wistar or Sprague Dawley rats on a high carbohydrate diet for 3 days (LabDiet #5803, Purina). The livers were homogenized (1:10 w/v) in a buffer containing 250 mM sucrose, 1 mM EDTA, 5 mM DTT and 50 mM Tris-HCl (pH 7.5). After a 100,000×g centrifugation for 60 min, the liver microsome pellet was suspended in a buffer containing 100 mM sodium phosphate, 20% glycerol, 2 mM DTT, and stored at −78° C. Human SCD1 desaturase system was reconstituted using human SCD1 from a baculovirus/Sf9 expression system, cytochrome B5 and cytochrome B5 reductase. Typically, test compound in 2 μL DMSO was incubated for […] at room temperature with 180 μL of the SCD enzyme in a buffer containing 100 mM Tris-HCl (pH 7.5), ATP (5 mM), Coenzyme-A (0.1 mM), Triton X-100 (0.5 mM) and NADH (2 mM). The reaction was initiated by the addition of 20 μL of [^3H]-stearoyl-CoA (final concentration=2 μM, radioactivity concentration=1 μCi/mL). After 10 mM, the reaction mixture (80 μL) was mixed with a calcium chloride/charcoal aqueous suspension (100 μL charcoal (10% w/v) plus 25 μL CaCl2 (2N). After centrifugation to precipitate the radioactive fatty acid species, tritiated water released from 9,10-[^3H]-stearoyl-CoA by the SCD enzyme was quantified on a scintillation counter.

Sequence of human SCD1 (O00767 whole entry): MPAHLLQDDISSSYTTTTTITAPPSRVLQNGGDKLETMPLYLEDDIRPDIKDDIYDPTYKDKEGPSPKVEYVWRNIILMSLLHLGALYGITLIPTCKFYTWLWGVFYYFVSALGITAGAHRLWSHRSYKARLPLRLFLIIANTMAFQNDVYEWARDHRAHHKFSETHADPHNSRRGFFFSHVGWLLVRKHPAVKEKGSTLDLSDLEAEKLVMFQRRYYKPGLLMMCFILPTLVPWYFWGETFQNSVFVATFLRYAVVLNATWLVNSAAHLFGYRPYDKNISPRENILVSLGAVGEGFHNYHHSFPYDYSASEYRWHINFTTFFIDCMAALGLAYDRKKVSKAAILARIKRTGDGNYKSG

With `O=C(O)Cn1nnc(-c2nnc(N3CCC4(CCc5c(Cl)cccc5O4)CC3)s2)n1` [Example 1, {5-[5-(5-Chloro-3,4-dihydro-1′H-spiro[chromene-2,4′-piperidin]-1′-yl)-1,3,4-thiadiazol-2-yl]-2H-tetrazol-2-yl}acetic acid] as the molecule, how does the IC50 read?
The IC50 was 12 nM.

With `O=C(O)Cn1nnc(-c2cc(N3CCC4(CCc5c(Cl)cccc5O4)CC3)no2)n1` [Example 2, {5-[3-(5-Chloro-3,4-dihydro-1′H-spiro[chromene-2,4′-piperidin]-1′-yl)isoxazol-5-yl]-2H-tetrazol-2-yl}acetic acid] as the molecule, how does the IC50 read?
Its IC50 is 11 nM.

How did the IC50 turn out when `O=C(O)Cn1nnc(-c2cnc(N3CCC4(CCc5c(Cl)cccc5O4)CC3)s2)n1` [Example 3, {5-[2-(5-Chloro-3,4-dihydro-1′H-spiro[chromene-2,4′-piperidin]-1′-yl)-1,3-thiazol-5-yl]-2H-tetrazol-2-yl}acetic acid] was run?
Its IC50 is 13 nM.

Which IC50 does the source give for `O=C(O)Cn1nnc(-c2cnc(N3CCC4(CC3)CC(=O)c3ccccc3O4)s2)n1` [Example 4, {5-[2-(4-Oxo-3,4-dihydro-1′H-spiro[chromene-2,4′-piperidin]-1′-yl)-1,3-thiazol-5-yl]-2H-tetrazol-2-yl}acetic acid] here?
Its IC50 is 41 nM.

Which IC50 does the source give for `O=C(O)Cn1nnc(-c2cnc(N3CCC4(CCc5ccccc54)CC3)s2)n1` [Example 5, {5-[2-(2,3-Dihydro-1′H-spiro[indene-1,4′-piperidin]-1′-yl)-1,3-thiazol-5-yl]-2H-tetrazol-2-yl}acetic acid] here?
Its IC50 is 49 nM.

Which IC50 does the source give for `O=C(O)Cn1nnc(-c2cnc(N3CCC4(CC3)COc3ccccc34)s2)n1` [Example 6, {5-[2-(1′H-Spiro[1-benzofuran-3,4′-piperidin]-1′-yl)-1,3-thiazol-5-yl]-2H-tetrazol-2-yl}acetic acid] here?
The IC50 was 65 nM.

Which IC50 does the source give for `O=C(O)Cn1nnc(-c2cnc(N3CCC4(C=Cc5ccccc54)CC3)s2)n1` [Example 7, {5-[2-(1′H-Spiro[indene-1,4′-piperidin]-1′-yl)-1,3-thiazol-5-yl]-2H-tetrazol-2-yl}acetic acid] here?
The IC50 was 244 nM.

`O=C(O)Cn1nnc(-c2nnc(N3CCC4(CC3)CC(=O)c3ccccc3O4)s2)n1` [Example 8, {5-[5-(4-Oxo-3,4-dihydro-1′H-spiro[chromene-2,4′-piperidin]-1′-yl)-1,3,4-thiadiazol-2-yl]-2H-tetrazol-2-yl}acetic acid] was tested. Which IC50 did it give?
Its IC50 is 708 nM.

With `O=C(O)Cn1nnc(-c2cnc(N3CCC4(CC3)NC(=O)c3ccccc3O4)s2)n1` [Example 9, {5-[2-(4-Oxo-3,4-dihydro-1′H-spiro[1,3-benzoxazine-2,4′-piperidin]-1′-yl)-1,3-thiazol-5-yl]-2H-tetrazol-2-yl}acetic acid] as the molecule, how does the IC50 read?
Its IC50 is 181 nM.

Which IC50 does the source give for `O=C(O)Cn1nnc(-c2nnc(N3CCC4(CC3)Cc3ccccc3C(=O)O4)s2)n1` [Example 10, {5-[5-(1-Oxo-1,4-dihydro-1′H-spiro[isochromene-3,4′-piperidin]-1′-yl)-1,3,4-thiadiazol-2-yl]-2H-tetrazol-2-yl}acetic acid] here?
The IC50 was 338 nM.

Which IC50 does the source give for `COc1cccc2c1CCC1(CCN(c3nnc(-c4nnn(CC(=O)O)n4)s3)CC1)O2` [Example 11, {5-[5-(5-Methoxy-3,4-dihydro-1′H-spiro[chromene-2,4′-piperidin]-1′-yl)-1,3,4-thiadiazol-2-yl]-2H-tetrazol-2-yl}acetic acid] here?
Its IC50 is 13 nM.

How did the IC50 turn out when `O=C(O)Cn1nnc(-c2nnc(N3CCC4(CCc5c(O)cccc5O4)CC3)s2)n1` [Example 12, {5-[5-(5-Hydroxy-3,4-dihydro-1′H-spiro[chromene-2,4′-piperidin]-1′-yl)-1,3,4-thiadiazol-2-yl]-2H-tetrazol-2-yl}acetic acid] was run?
The IC50 was 366 nM.

For `O=C(O)Cn1nnc(-c2cc(N3CCC4(CCc5c(OC(F)(F)F)cccc5O4)CC3)no2)n1` [Example 16, (5-{3-[5-(Trifluoromethoxy)-3,4-dihydro-1H-spiro[chromene-2,4′-piperidin]-1′-yl]isoxazol-5-yl}-2H-tetrazol-2-yl)acetic acid], which IC50 is on record?
The IC50 was 1 nM.

With `O=C(O)Cn1nnc(-c2nnc(N3CCC4(CCc5c(OC(F)(F)F)cccc5O4)CC3)s2)n1` [Example 17, (5-{5-[5-(Trifluoromethoxy)-3,4-dihydro-1′H-spiro[chromene-2,4′-piperidin]-1′-yl]-1,3,4-thiadiazol-2-yl}-2H-tetrazol-2-yl)acetic acid] as the molecule, how does the IC50 read?
The IC50 was 1 nM.

For `O=C(O)Cn1nnc(-c2cnc(N3CCC4(CCc5c(OC(F)(F)F)cccc5O4)CC3)s2)n1` [Example 18, (5-{2-[5-(Trifluoromethoxy)-3,4-dihydro-1′H-spiro[chromene-2,4′-piperidin]-1′-yl]-1,3-thiazol-5-yl}-2H-tetrazol-2-yl)acetic acid], which IC50 is on record?
The IC50 was 1 nM.

For `O=C(O)Cn1nnc(-c2cc(N3CCC4(CCc5c(Br)cccc5O4)CC3)no2)n1` [Example 22, {5-[3-(5-Bromo-3,4-dihydro-1′H-spiro[chromene-2,4′-piperidin]-1′-yl)isoxazol-5-yl]-2H-tetrazol-2-yl}acetic acid], which IC50 is on record?
Its IC50 is 1 nM.

With `O=C(O)Cn1nnc(-c2cnc(N3CCC4(CCc5c(Br)cccc5O4)CC3)s2)n1` [Example 28, {5-[2-(5-Bromo-3,4-dihydro-1′H-spiro[chromene-2,4′-piperidin]-1′-yl)-1,3-thiazol-5-yl]-2H-tetrazol-2-yl}acetic acid] as the molecule, how does the IC50 read?
The IC50 was 1 nM.

How did the IC50 turn out when `Cc1cccc2c1CCC1(CCN(c3ncc(-c4nnn(CC(=O)O)n4)s3)CC1)O2` [Example 42, {5-[2-(5-Methyl-3,4-dihydro-1′H-spiro[chromene-2,4′-piperidin]-1′-yl)-1,3-thiazol-5-yl]-2H-tetrazol-2-yl}acetic acid] was run?
Its IC50 is 1 nM.

For `O=C(O)Cn1nnc(-c2cnc(N3CCC4(CC3)Cc3cccc(Cl)c3C(=O)O4)s2)n1` [Example 46, {5-[2-(8-Chloro-1-oxo-1,4-dihydro-1′H-spiro[isochromene-3,4′-piperidin]-1′-yl)-1,3-thiazol-5-yl]-2H-tetrazol-2-yl}acetic acid], which IC50 is on record?
The IC50 was 21 nM.

`O=C(O)Cn1nnc(-c2cnc(N3CCC4(CC3)NC(=O)c3c(Cl)cccc3O4)s2)n1` [Example 54] was tested. Which IC50 did it give?
Its IC50 is 62 nM.

For `O=C(O)Cn1ccn(-c2cnc(N3CCC4(CCc5c(Cl)cccc5O4)CC3)s2)c1=O` [Example 68, {3-[2-(5-Chloro-3,4-dihydro-1′H-spiro[chromene-2,4′-piperidin]-1′-yl)-1,3-thiazol-5-yl]-2-oxo-2,3-dihydro-1H-imidazol-1-yl}acetic acid], which IC50 is on record?
The IC50 was 3 nM.

Which IC50 does the source give for `O=C(O)Cn1nnc(-c2nnc(N3CCC4(CCc5c(cccc5C(F)(F)F)O4)CC3)s2)n1` [Example 75, (5-{5-[5-(Trifluoromethyl)-3,4-dihydro-1′H-spiro[chromene-2,4′-piperidin]-1′-yl]-1,3,4-thiadiazol-2-yl}-2H-tetrazol-2-yl)acetic acid] here?
The IC50 was 1 nM.

How did the IC50 turn out when `O=C(O)Cn1nnc(-c2cnc(N3CCC4(CCc5c(cccc5C(F)(F)F)O4)CC3)s2)n1` [Example 76, (5-{2-[5-(Trifluoromethyl)-3,4-dihydro-1′H-spiro[chromene-2,4′-piperidin]-1′-yl]-1,3-thiazol-5-yl}-2H-tetrazol-2-yl)acetic acid] was run?
The IC50 was 1 nM.

How did the IC50 turn out when “{4-[5-(5-Chloro-3,4-dihydro-1′H-spiro[chromene-2,4′-piperidin]-1′-yl)-1,3,4-thiadiazol-2-yl]-1H-1,2,3-triazol-1-yl}acetic acid [Example 72]” was run?
The IC50 was 3 nM.
